Reference: US6864251B2, “Treatment of LTB4-mediated inflammatory disorders with optically-pure (R)-2,3-benzodiazepines” (Vela Pharmaceuticals, Inc., priority 2002, dated 2005)
Several values for one entry are separate records, joined by “and”; a condition that tells them apart may be missing. Identical values can stand only once.

Tests used:
[1] = test system: LTB4-induced dermal inflammation; experiment: Rabbit model of LTB4-induced dermal inflammation, histopathology of intradermal challenge sites; assay type: in vivo, New Zealand White Rabbits; set-up: key to Inflammation score / Edema score: 0=normal; T=trace; 1=minimal; 2=mild; 3=moderate; 4=marked; conditions: test article IP 60 mg/kg (dexamethasone 0.5 mg/kg), 4 hr after challenge
Description: Test compounds were prepared as follows. The vehicle was first prepared by dissolving […] of hydroxypropylmethylcellulose 2910 (HPMC)(Sigma Chemical, St. Louis, Mo.) in 50 mL of 0.9% saline to yield a concentration of 2% HPMC. The three test articles, (R)-, (S)- and racemic tofisopam, were formulated by adding 1 g of each test article to 10 mL of vehicle.
On Day 0, the rabbits were sedated with ketamine/xylazine (35/5 mg/kg, s.c.) and an area of approximately 8×14 cm on the back was closely and carefully clipped to expose the skin, but not inflame or otherwise damage the epithelium. A grid of ten squares each approximately 2.5×2.5 cm was drawn on each animal's back using an indelible marker. The animals were then dosed intraperitoneally with the appropriate test article corresponding to the group. Thirty minutes after dosing with test or control article, the animals were challenged intradermally with the LTB4 or LTB4-aminopropamide (LTB4-AP, a synthetic LTB4 agonist) in the appropriate site as shown in Table 4. Each injection site was marked with an indelible marker in order to identify the exact location of the intradermal injection site. Sixty minutes after challenge, the animals were treated again with tofisopam or control articles. The animals were sacrificed 4 hrs. after challenge, and the intradermal injection sites were excised, fixed in 10% neutral buffered formalin (NBF), and submitted for histopathology. H&E-stained sections were read by a board-certified veterinary pathologist using light microscopy.
All animals were sacrificed 4 hr after challenge. The intradermal challenge sites were excised, placed on unique cardboard squares, fixed in 10% NBF, and submitted for histopathology. The skin sections included the epidermis and the subcutis, down to the back musculature.
The marked skin sections were fixed for at least 48 hours on small cardboard squares. At gross trimming, three levels were cut through marked skin region in order to assure that the injection sites is brought into the plane of section. The skins were gross trimmed, processed by dehydration, embedded in paraffin, sectioned at 3-5 μm, and stained with hematoxylin and eosin.
The tissues were evaluated histopathologically via light microscopy by a board-certified veterinary pathologist. Initially, the identity of the slides was masked in order to perform the initial evaluation and rank the slides. The slides were then unmasked and there was a careful assessment of the lesions and careful comparison of the tofisopam-treated sites to the vehicle and positive control tissues. The lesions were graded based upon the degree of inflammation and the degree of edema. The severity of the inflammation and edema was keyed as follows: 0=normal; T=trace; 1=minimal; 2=mild; 3=moderate; 4=marked.

LTB4 receptor = LTB4 receptor (Cavia porcellus, UniProt H0VYV8); experiment: LTB4 binding assay, displacement of [3H]LTB4, guinea pig spleen membrane
Sequence of LTB4 receptor (H0VYV8 1-348): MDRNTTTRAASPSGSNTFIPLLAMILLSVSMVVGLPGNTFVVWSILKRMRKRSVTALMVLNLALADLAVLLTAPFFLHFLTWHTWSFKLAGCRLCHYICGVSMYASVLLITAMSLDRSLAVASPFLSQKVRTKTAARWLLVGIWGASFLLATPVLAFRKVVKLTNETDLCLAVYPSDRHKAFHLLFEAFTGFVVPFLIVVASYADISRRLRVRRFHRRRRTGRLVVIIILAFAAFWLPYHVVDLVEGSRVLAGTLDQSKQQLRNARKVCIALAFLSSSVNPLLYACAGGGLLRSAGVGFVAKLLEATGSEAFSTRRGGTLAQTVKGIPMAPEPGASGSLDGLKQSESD
Description: Reactions were carried out in a phosphate buffer (pH 7.4) containing NaCl, MgCl2, EDTA, and bacitracin. The reaction volume of 150 μL containing 1.0 mg/mL of the Guinea pig spleen membrane preparation and 1 nM [^3H]LTB4, with or without a competitor, was incubated at 0-4° C. for 2 hours. Competitors included 2,3-benzodiazepines, and LTB4 as a control. The reaction was terminated by rapid vacuum filtration onto glass fiber filters. The filter was washed with cold buffer, dried and placed in a scintillation vial. Radioactivity trapped onto the filters was determined and compared to control values in order to ascertain any interactions of the test compound with the LTB4 binding site.

C[C@@H]1C[C@H]2[C@@H]3CCC4=CC(=O)C=C[C@]4(C)[C@@]3(F)[C@@H](O)C[C@]2(C)[C@@]1(O)C(=O)CO [dexamethasone]
Edema score ([1]; injection site: LTB4 500 ng): 2 and 3
Inflammation score ([1]; injection site: LTB4 500 ng): 2 and 3
Edema score ([1]; injection site: LTB4 1000 ng): 2 and 3
Inflammation score ([1]; injection site: LTB4 1000 ng): 3
Edema score ([1]; injection site: LTB4 2000 ng): 3 and 2 and 1
Edema score ([1]; injection site: LTB-ap 500 ng): 2 and 3
Inflammation score ([1]; injection site: LTB-ap 500 ng): 3 and 2
Edema score ([1]; injection site: LTB-ap 1000 ng): 3
Inflammation score ([1]; injection site: LTB-ap 1000 ng): 2
Edema score ([1]; injection site: LTB-ap 2000 ng): 3 and 1 and 2
Inflammation score ([1]; injection site: LTB-ap 2000 ng): 2 and 1
Edema score ([1]; injection site: Vehicle 0 ng): 1 and 0
Inflammation score ([1]; injection site: Vehicle 0 ng): 1 and 0

CCCCC/C=C\C[C@@H](O)/C=C/C=C/C=C\[C@@H](O)CCCC(=O)O [LTB4, Leukotriene B4]
Ki (LTB4 receptor): 0.2 to 0.9 nM
